Measured values taken from ChEMBL document CHEMBL1909046, “DrugMatrix in vitro pharmacology data”.

Tests used:
[1] = biological target: T1, Progesterone receptor (Bos taurus, UniProt Q690N0); assay: DRUGMATRIX: Progesterone radioligand binding (ligand: [3H] R-5020); assay type: tissue-based, Uterus; details: Not Active = under 50% inhibition at 10 µM
T1 sequence (Q690N0 whole entry): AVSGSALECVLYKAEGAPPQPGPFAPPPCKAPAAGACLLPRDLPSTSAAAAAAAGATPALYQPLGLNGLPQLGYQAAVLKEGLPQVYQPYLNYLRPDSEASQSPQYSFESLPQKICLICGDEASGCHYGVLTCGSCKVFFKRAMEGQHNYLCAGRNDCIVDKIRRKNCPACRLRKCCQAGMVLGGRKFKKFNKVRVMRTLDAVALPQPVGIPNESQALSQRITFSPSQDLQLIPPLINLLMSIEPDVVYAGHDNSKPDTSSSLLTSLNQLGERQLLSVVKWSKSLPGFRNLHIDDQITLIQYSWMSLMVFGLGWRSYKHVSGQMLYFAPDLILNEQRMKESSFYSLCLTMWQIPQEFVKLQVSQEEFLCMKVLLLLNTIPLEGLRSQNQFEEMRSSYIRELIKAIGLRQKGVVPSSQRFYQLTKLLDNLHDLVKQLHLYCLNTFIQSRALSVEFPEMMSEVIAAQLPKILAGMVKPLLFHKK

[2] = biological target: T2, Cytochrome P450 2A6 (Homo sapiens, UniProt P11509); details: bti-tn-5b1-4; note: in other assays of this panel Not Active means under 50% inhibition at 10 µM
T2 sequence (P11509 whole entry): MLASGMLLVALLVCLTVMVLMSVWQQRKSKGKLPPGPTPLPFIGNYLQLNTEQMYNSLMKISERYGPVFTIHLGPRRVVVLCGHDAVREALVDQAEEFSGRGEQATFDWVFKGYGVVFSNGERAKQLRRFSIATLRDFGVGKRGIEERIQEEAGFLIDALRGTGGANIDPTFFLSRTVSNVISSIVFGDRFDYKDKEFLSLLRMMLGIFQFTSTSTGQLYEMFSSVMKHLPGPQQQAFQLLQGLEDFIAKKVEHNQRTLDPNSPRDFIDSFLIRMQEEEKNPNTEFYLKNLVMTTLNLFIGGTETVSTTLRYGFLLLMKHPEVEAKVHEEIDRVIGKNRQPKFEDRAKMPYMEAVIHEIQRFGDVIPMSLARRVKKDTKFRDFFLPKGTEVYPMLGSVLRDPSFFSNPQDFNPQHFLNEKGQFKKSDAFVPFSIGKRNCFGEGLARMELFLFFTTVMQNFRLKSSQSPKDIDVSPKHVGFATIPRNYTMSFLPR

[3] = biological target: Delta-type opioid receptor (Homo sapiens, UniProt P41143); assay type: cell membranes, HEK293, Membrane; details: hek293; note: in other assays of this panel Not Active means under 50% inhibition at 10 µM
Chain of Delta-type opioid receptor (P41143 whole entry): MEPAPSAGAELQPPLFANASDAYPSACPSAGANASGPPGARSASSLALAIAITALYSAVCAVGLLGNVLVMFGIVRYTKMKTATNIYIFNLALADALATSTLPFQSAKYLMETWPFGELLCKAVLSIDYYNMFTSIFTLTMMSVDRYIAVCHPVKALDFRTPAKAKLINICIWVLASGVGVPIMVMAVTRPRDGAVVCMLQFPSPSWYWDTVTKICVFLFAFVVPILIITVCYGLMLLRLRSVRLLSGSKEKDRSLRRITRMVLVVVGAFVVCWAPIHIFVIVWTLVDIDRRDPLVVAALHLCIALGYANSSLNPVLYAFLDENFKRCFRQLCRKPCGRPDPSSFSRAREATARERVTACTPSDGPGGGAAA

[4] = DRUGMATRIX: GABAA, Flunitrazepam, Central radioligand binding (ligand: [3H] Flunitrazepam); assay type: cell membranes, Rattus norvegicus, Wistar, Brain, Membrane; details: Not Active = under 50% inhibition at 10 µM
[5] = biological target: Mitogen-activated protein kinase 1 (Homo sapiens, UniProt P28482); assay: DRUGMATRIX: Protein Serine/Threonine Kinase, ERK2 enzyme inhibition (substrate: Myelin Basic Protein); parameters: species or system Escherichia coli; details: Not Active = under 50% inhibition at 10 µM
Chain of Mitogen-activated protein kinase 1 (P28482 whole entry): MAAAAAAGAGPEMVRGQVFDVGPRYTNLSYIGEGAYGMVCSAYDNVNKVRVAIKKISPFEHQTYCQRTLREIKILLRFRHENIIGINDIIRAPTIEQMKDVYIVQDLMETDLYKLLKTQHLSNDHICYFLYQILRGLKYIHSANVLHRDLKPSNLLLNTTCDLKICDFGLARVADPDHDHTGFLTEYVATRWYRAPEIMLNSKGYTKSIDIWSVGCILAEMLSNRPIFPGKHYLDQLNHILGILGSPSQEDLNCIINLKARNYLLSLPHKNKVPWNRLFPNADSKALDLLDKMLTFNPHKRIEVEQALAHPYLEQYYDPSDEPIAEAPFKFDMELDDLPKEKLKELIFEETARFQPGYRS

[6] = DRUGMATRIX: Imidazoline I2, Central radioligand binding (ligand: [3H] Idazoxan); assay type: cell membranes, Rattus norvegicus, Wistar, Cerebral cortex, Membrane; details: Not Active = under 50% inhibition at 10 µM

| Compound | IC50 [1] | IC50 [2] | Ki [2] | IC50 [3] | IC50 [4] | Ki [4] | IC50 [5] | IC50 [6] | Ki [6] | IC50 ([6]; read-out: IC50) [nM] | Ki ([6]; read-out: Ki) [nM] | IC50 ([1]; read-out: IC50) [nM] | Ki ([1]; read-out: Ki) [nM] |
| --- | --- | --- | --- | --- | --- | --- | --- | --- | --- | --- | --- | --- | --- |
| CCOC(=O)C1=C(C)NC(C)=C(C(=O)OC)C1c1cccc(Cl)c1Cl (stereo unspecified) [FELODIPINE] | Not Active | Not Active | Not Active | Not Active | Not Active | Not Active | Not Active | Not Active | Not Active |  |  |  |  |
| NC[C@@H]1O[C@H](O[C@H]2[C@@H](O)[C@H](O[C@@H]3[C@@H](O)[C@H](N)C[C@H](N)[C@H]3O[C@H]3O[C@H](CN)[C@@H](O)[C@H](O)[C@H]3N)O[C@@H]2CO)[C@H](N)[C@@H](O)[C@@H]1O [FRAMYCETIN] | Not Active | Not Active | Not Active | Not Active | Not Active | Not Active | Not Active | Not Active | Not Active |  |  |  |  |
| C[C@H]([C@](O)(Cn1cncn1)c1ccc(F)cc1F)S(C)(=O)=O [GENACONAZOLE] | Not Active | Not Active | Not Active | Not Active | Not Active | Not Active | Not Active | Not Active | Not Active |  |  |  |  |
| Cc1c(F)c(N2CCNC(C)C2)cc2c1c(=O)c(C(=O)O)cn2C1CC1 (stereo unspecified) [GREPAFLOXACIN] | Not Active | Not Active | Not Active | Not Active | Not Active | Not Active | Not Active | Not Active | Not Active |  |  |  |  |
| N=C(N)N/N=C/c1c(Cl)cccc1Cl [GUANABENZ] | Not Active | Not Active | Not Active | Not Active | Not Active | Not Active | Not Active |  |  | 18 | 12 |  |  |
| C[C@]12CCC(=O)C=C1CC[C@@H]1[C@@H]2[C@@H](O)C[C@@]2(C)[C@H]1CC[C@]2(O)C(=O)CO [HYDROCORTISONE] | Not Active | Not Active | Not Active | Not Active | Not Active | Not Active | Not Active | Not Active | Not Active |  |  |  |  |
| NC[C@H]1O[C@H](O[C@H]2[C@H](O)[C@@H](O[C@H]3O[C@H](CO)[C@@H](O)[C@H](N)[C@H]3O)[C@H](N)C[C@@H]2N)[C@H](O)[C@@H](O)[C@@H]1O [KANAMYCIN] | Not Active | Not Active | Not Active | Not Active | Not Active | Not Active | Not Active | Not Active | Not Active |  |  |  |  |
| CC[C@H](C)C(=O)O[C@H]1C[C@@H](C)C=C2C=C[C@H](C)[C@H](CC[C@@H]3C[C@@H](O)CC(=O)O3)[C@H]21 [LOVASTATIN] | Not Active | Not Active | Not Active | Not Active | Not Active | Not Active | Not Active | Not Active | Not Active |  |  |  |  |
| CC(C(=O)O)c1ccc(CC2CCCC2=O)cc1 (stereo unspecified) [LOXOPROFEN] | Not Active | Not Active | Not Active | Not Active | Not Active | Not Active | Not Active | Not Active | Not Active |  |  |  |  |
| Cc1cccc(Nc2ccccc2C(=O)O)c1C [MEFENAMIC ACID] | Not Active | Not Active | Not Active | Not Active | Not Active | Not Active | Not Active | Not Active | Not Active |  |  |  |  |
| CC(=O)O[C@]1(C(C)=O)CC[C@H]2[C@@H]3C=C(C)C4=CC(=O)CC[C@]4(C)[C@H]3CC[C@@]21C [MEGESTROL ACETATE] |  | Not Active | Not Active | Not Active | Not Active | Not Active | Not Active | Not Active | Not Active |  |  | 11 | 1.44 |
| COc1ccccc1OCC(O)COC(N)=O (stereo unspecified) [METHOCARBAMOL] | Not Active | Not Active | Not Active | Not Active | Not Active | Not Active | Not Active | Not Active | Not Active |  |  |  |  |
| CN(Cc1cnc2nc(N)nc(N)c2n1)c1ccc(C(=O)N[C@@H](CCC(=O)O)C(=O)O)cc1 [METHOTREXATE] | Not Active | Not Active | Not Active | Not Active | Not Active | Not Active | Not Active | Not Active | Not Active |  |  |  |  |
| COC(=O)c1ccccc1O [METHYL SALICYLATE] | Not Active | Not Active | Not Active | Not Active | Not Active | Not Active | Not Active | Not Active | Not Active |  |  |  |  |
| COc1ccc2cc(CCC(C)=O)ccc2c1 [NABUMETONE] | Not Active | Not Active | Not Active | Not Active | Not Active | Not Active | Not Active | Not Active | Not Active |  |  |  |  |
| O=C(O)c1cccnc1 [NIACIN] | Not Active | Not Active | Not Active | Not Active | Not Active | Not Active | Not Active | Not Active | Not Active |  |  |  |  |
| CNC(=C[N+](=O)[O-])NCCSCc1csc(CN(C)C)n1 [NIZATIDINE] | Not Active | Not Active | Not Active | Not Active | Not Active | Not Active | Not Active | Not Active | Not Active |  |  |  |  |
| C[C@]12C/C(=C/O)C(=O)C[C@@H]1CC[C@@H]1[C@@H]2CC[C@@]2(C)[C@H]1CC[C@]2(C)O [OXYMETHOLONE] | Not Active | Not Active | Not Active | Not Active | Not Active | Not Active | Not Active | Not Active | Not Active |  |  |  |  |
| CC(C)(CO)C(O)C(=O)NCCCO (stereo unspecified) [PANTHENOL] | Not Active | Not Active | Not Active | Not Active | Not Active | Not Active | Not Active | Not Active | Not Active |  |  |  |  |
| COc1ccc(Cc2nccc3cc(OC)c(OC)cc23)cc1OC [PAPAVERINE] | Not Active | Not Active | Not Active | Not Active | Not Active | Not Active | Not Active | Not Active | Not Active |  |  |  |  |
| OCCN1CCN(CCCN2c3ccccc3Sc3ccc(Cl)cc32)CC1 [PERPHENAZINE] | Not Active | Not Active | Not Active | Not Active | Not Active | Not Active | Not Active | Not Active | Not Active |  |  |  |  |
| CCCCC1C(=O)N(c2ccccc2)N(c2ccccc2)C1=O [PHENYLBUTAZONE] | Not Active | Not Active | Not Active | Not Active | Not Active | Not Active | Not Active | Not Active | Not Active |  |  |  |  |
| Cc1cccc(Nc2cc(Cl)nc(SCC(=O)O)n2)c1C [PIRINIXIC ACID] | Not Active | Not Active | Not Active | Not Active | Not Active | Not Active | Not Active | Not Active | Not Active |  |  |  |  |
| CC[C@H](C)C(=O)O[C@H]1C[C@H](O)C=C2C=C[C@H](C)[C@H](CC[C@@H](O)C[C@@H](O)CC(=O)O)[C@H]21 [PRAVASTATIN] | Not Active | Not Active | Not Active | Not Active | Not Active | Not Active | Not Active | Not Active | Not Active |  |  |  |  |
| CC(C)(Sc1cc(C(C)(C)C)c(O)c(C(C)(C)C)c1)Sc1cc(C(C)(C)C)c(O)c(C(C)(C)C)c1 [PROBUCOL] | Not Active | Not Active | Not Active | Not Active | Not Active | Not Active | Not Active | Not Active | Not Active |  |  |  |  |
